Key:
[1] = test system: female Wistar rats; assay: 26-week oral gavage study in female Wistar rats, hematological parameters in peripheral blood (Bayer ADVIA 120); format: in vivo, rat
Protocol: FIG. 2 Effect of [5-Methanesulfonyl-2-((S)-2,2,2-trifluoro-1-methyl-ethoxy) phenyl]-(3-trifluoromethyl-5,7-dihydro-pyrrolo[3,4-b]pyridin-6-yl)-methanone on mean group hemoglobin in female rats (26-week study)
(§1) [5-Methanesulfonyl-2-((S)-2,2,2-trifluoro-1-methyl-ethoxy)phenyl]-(3-trifluoromethyl-5,7-dihydro-pyrrolo[3,4-b]pyridin-6-yl)-methanone was administered daily for 26-weeks by oral gavage to 20 females Wistar rats per group at doses of 2, 6 and 12 mg/kg/day, followed by a 4-week recovery period off treatment for which 6 additional females where allocated per dose group. The control group was treated with a vehicle control during the dosing period. At various time points during the study hematological parameters including Hb were investigated in peripheral blood using the Bayer, ADVIA 120 hematology analyser. Data represent group mean values and error bars indicate the standard deviation (SD).
FIG. 4 Effect of [5-Methanesulfonyl-2-((S)-2,2,2-trifluoro-1-methyl-ethoxy)phenyl](3-trifluoromethyl-5,7-dihydro-pyrrolo[3,4-b]pyridin-6-yl)-methanone on mean group MCH in female rats (26-week study)
as §1, with “[5-Methanesulfonyl-2-((S)-2,2,2-trifluoro-1-methyl-ethoxy)phenyl](3-trifluoromethyl-5,7-dihydro-pyrrolo[3,4-b]pyridin-6-yl)-methanone” for “[5-Methanesulfonyl-2-((S)-2,2,2-trifluoro-1-methyl-ethoxy)phenyl]-(3-trifluoromethyl-5,7-dihydro-pyrrolo[3,4-b]pyridin-6-yl)-methanone”, “haematology” for “hematology”

[2] = test system: soluble transferrin receptor (sTfrR); assay: 36-week oral study in cynomolgus monkeys, sTfR in peripheral blood (SISCAPA assay with mass spectrometry); format: in vivo, cynomolgus monkey; conditions: cynomolgus monkeys, 1, 3 and 9 mg/kg/day by capsule via oral gavage for 36 weeks (FIG. 5)
Protocol: FIG. 5 Effect of 4-(3-fluoro-5-trifluoromethyl-pyridin-2-yl)-piperazin-1-yl]-[5-methanesulfonyl-2-((S)-2,2,2-trifluoro-1-methyl-ethoxy)-phenyl]-methanone on sTrfR in female cynomolgus monkeys
4-(3-fluoro-5-trifluoromethyl-pyridin-2-yl)-piperazin-1-yl]-[5-methanesulfonyl-2-((S)-2,2,2-trifluoro-1-methyl-ethoxy)-phenyl]-methanone was administered by capsule via oral gavage to 4 male and 4 female cynomolgus monkeys per group at dose levels of control vehicle, 1, 3 and 9 mg/kg/day for 36 weeks. An additional 2 animals per sex from the control and high-dose group were maintained for an additional 13-week recovery period for assessment of reversibility of any findings. Measurement of sTfR was performed on various occasions during the study in peripheral blood samples. Measurements were done using a SISCAPA Assay Technologies Inc. developed assay, designed to identify the soluble fragment of the human transferrin receptor (sTfR) in serum, plasma and blood using the SISCAPA® workflow in combination with mass spectrometry. The human assay was adapted and validated for cynomolgus sTf measurements. Data shown represent group mean values, error bars indicate the standard deviation.

[3] = test system: female Wistar rats; assay: 8-week dietary admix study in female Wistar rats, hematological parameters in peripheral blood (SYSMEX XT analyser); format: in vivo, rat
Protocol: FIG. 1 Effect of 4-(3-fluoro-5-trifluoromethyl-pyridin-2-yl)-piperazin-1-yl]-[5-methanesulfonyl-2-((S)-2,2,2-trifluoro-1-methyl-ethoxy)-phenyl]-methanone on mean group hemoglobin in female rats (8-week study)
4-(3-Fluoro-5-trifluoromethyl-pyridin-2-yl)-piperazin-1-yl]-[5-methanesulfonyl-2-((S)-2,2,2-trifluoro-1-methyl-ethoxy)-phenyl]-methanone was administered daily for 8-weeks by dietary admix to female Wistar rats to achieve doses of 1, 3, and 8 mg/kg/day, followed by a 4-week recovery period off treatment. The control group received standard diet only during the whole study period. At various time points during the study hematological parameters including Hb were investigated in peripheral blood using a SYSMEX XT analyser. Data represent group mean values and error bars indicate standard deviation (SD).
FIG. 3 Effect of 4-(3-fluoro-5-trifluoromethyl-pyridin-2-yl)-piperazin-1-yl]-[5-methanesulfonyl-2-((S)-2,2,2-trifluoro-1-methyl-ethoxy)-phenyl]-methanone on mean group MCH in female rats (8-week study)
4-(3-fluoro-5-trifluoromethyl-pyridin-2-yl)-piperazin-1-yl]-[5-methanesulfonyl-2-((S)-2,2,2-trifluoro-1-methyl-ethoxy)-phenyl]-methanone was administered daily for 8-weeks by dietary admix to female Wistar rats to achieve doses of 1, 3, and 8 mg/kg/day followed by a 4-week recovery period off treatment. The control group received standard diet during the whole study period. At various time points during the study hematological parameters including MCH were investigated in peripheral blood using a SYSMEX XT analyser. Data represent group mean values and error bars indicate the standard deviation (SD).

| Compound | overall maximal decrease in total hemoglobin concentration ([1]; female Wistar rats, 2, 6 and 12 mg/kg/day by oral gavage for 26 weeks) [%] | induced erythropoiesis type ([1]; female Wistar rats, 2, 6 and 12 mg/kg/day by oral gavage for 26 weeks, all dose levels) | total hemoglobin concentration ([1]; female Wistar rats, 2, 6 and 12 mg/kg/day by oral gavage for 26 weeks, all dose levels (FIG. 2)) | intracellular hemoglobin, MCH ([1]; female Wistar rats, 2, 6 and 12 mg/kg/day by oral gavage for 26 weeks, all dose levels (FIG. 4)) | reversibility of the hemoglobin effect ([1]; female Wistar rats, 4-week recovery period off treatment after 26 weeks) | soluble transferrin receptor (sTfrR) in peripheral blood [2] | overall maximal decrease in total hemoglobin concentration ([3]; female Wistar rats, 1, 3 and 8 mg/kg/day by dietary admix for 8 weeks) [%] | induced erythropoiesis type ([3]; female Wistar rats, 1, 3 and 8 mg/kg/day by dietary admix for 8 weeks, all dose levels) | total hemoglobin concentration ([3]; female Wistar rats, 1, 3 and 8 mg/kg/day by dietary admix for 8 weeks, all dose levels (FIG. 1)) | intracellular hemoglobin, MCH ([3]; female Wistar rats, 1, 3 and 8 mg/kg/day by dietary admix for 8 weeks, all dose levels (FIG. 3)) | reversibility of the hemoglobin effect ([3]; female Wistar rats, 4-week recovery period off treatment after 8 weeks) |
| --- | --- | --- | --- | --- | --- | --- | --- | --- | --- | --- | --- |
| C[C@H](Oc1ccc(S(C)(=O)=O)cc1C(=O)N1Cc2cc(C(F)(F)F)cnc2C1)C(F)(F)F [[5-methanesulfonyl-2-((S)-2,2,2-trifluoro-1-methyl-ethoxy)-phenyl]-(3-trifluoromethyl-5,7-dihydro-pyrrolo[3,4-b]pyridin-6-yl)-methanone] | ≤ 20 | microcytic, hypochromic erythropoiesis | reduction | reduction | reversible |  |  |  |  |  |  |
| C[C@H](Oc1ccc(S(C)(=O)=O)cc1C(=O)N1CCN(c2ncc(C(F)(F)F)cc2F)CC1)C(F)(F)F [[4-(3-fluoro-5-trifluoromethyl-pyridin-2-yl)-piperazin-1-yl]-[5-methanesulfonyl-2-((S)-2,2,2-trifluoro-1-methyl-ethoxy)-phenyl]-methanone] |  |  |  |  |  | dose-dependent decrease | ≤ 20 | microcytic, hypochromic erythropoiesis | reduction | reduction | reversible |

— patent US20170042888A1, “GLYT1 INHIBITORS FOR USE IN THE TREATMENT OF HEMATOLOGICAL DISORDERS” (Hoffmann-La Roche Inc., priority 2014, published 2017)
